Data published in US6794148B2, “High speed, automated, continuous flow, multi-dimensional molecular selection and analysis” (PerSeptive Biosystems, Inc., priority 1995, dated 2004).
No end group written: not given here.

Legend:
[1] = test system: mouse IgG (whole fragment); assay: Solution phase and solid phase peptide screening of natural peptide library; format: binding
Protocol: (§1) 5 mg each of either mouse IgG (whole) or the Fc fragment was incubated with 20 mg of natural library and protein A and G digests, respectively. The mixture was dissolved in 1 ml of a mixture of 25 mM sodium phosphate buffer and 0.15 M NaCl (pH 7) overnight at 4° C. After incubation, several chromatographic runs through the Superdex SEC and RP columns were conducted with 200 of the protein and peptide mixture injected through the Superdex column during each run. The flow rate for the Superdex column was 0.75 m/min with the 25 mM sodium phosphate buffer and 0.15 M NaCl (pH 7) mixture. The early eluting protein peak was collected directly onto the RP column. The remaining portion of the peak was washed off the SEC. The mouse IgG (whole) or Fc fragment and its associated peptides were then eluted from the RP column under the following conditions:
(§2) The IgG activated POROS™ was packed into 4.6 mm D×100 mm L PEEK columns using Self Pack® assembly on BioCAD™ at 20 ml/min flow rate. 5 to 50 mgs peptide library (natural peptide library or polyclonal antibody digest) dissolved in 0.5 to 2.5 ml of 10 mM PBS (pH 7.5) was injected onto the column at flow rate of 0.5 ml/min. After wash with 5 CVs of PBS, the bound portion was eluted with 10 mM HCl and collected manually. […] The fractions corresponding to the bound peptides were concentrated in Speed Vac and analyzed by MALDI-TOF and Edman sequencing. […]

[2] = test system: IgG; assay: IgG purification from human serum on POROS-immobilized peptide column; format: binding; conditions: for IgG binding capacity of POROS-peptide column: peptide immobilized on POROS AL via N-terminal end
Protocol: 1 g POROS™ AL (aldehyde) was suspended in 10 mM PBS (pH 7.5) containing 100 mg sodium cyanoborohydride (NaCNBH3). 5 to 20 mg of each of the peptides selected by various screening procedures was added to the resin and the mixture was shaken overnight at room temperature. 100 mg sodium borohydride (NaBH4) was then added and the mixture was shaken for another 2 hrs. The beads were then washed with PBS and packed into 4.6 mm D×100 mm L column using POROS™ Self Pack® device.
100 μl of 1:10 diluted serum was injected onto the peptide column which was equilibrated with 20 mM tris (pH 8.0) at 5 ml/min. The bound proteins were eluted with 0-1 M NaCl gradient in 15 CVs. Fractions were collected manually and concentrated by Speed Vac for subsequent analysis by SDS-polyacrylamide gel electrophoresis.
The […] (SEQ ID NO: 8) peptide with heme group was immobilized on POROS™AL® (aldehyde) via the N-terminal end. This POROS™-peptide conjugate was used to separate IgG from serum at pH 8 under a 0-1 M NaCl gradient. […] To determine the nature of interaction, the purification profile of IgG separated on the POROS™-peptide column was compared with the IgG purified on standard ion exchange columns such as POROS™-CM and POROS™ HQ. […] The effect of the varying loading densities of peptide (from 10 mg/g POROS™ to 100 mg/g POROS™) on specificity and capacity for IgG binding was also investigated. The specificity of the peptide for IgG binding was also investigated. […] At low loading density (10 mg/g POROS™) IgG bound primarily via ionic interaction requiring elution of bound IgG with salt gradient. At higher loading density ([…]) IgG bound strongly and eluted with acid buffer. The binding capacity varied from 1-2 mg/ml column volume at lower ligand density to 30 mg/ml column volume at higher ligand densities.
A simplified analog of the heme peptide ([…]) (SEQ ID NO: 9) was synthesized and immobilized on POROS™ AL via the N-terminal end. […] The bound IgG was eluted from the GAQGHTVBK (SEQ ID NO: 9)-POROS™ column with 100 mM NaCl. The IgG binding capacity was determined to be 5 mg/ml column volume. Loading densities from 20 mg/g to 40 mg peptide /g POROS™ were evaluated. At these ligand densities, the specificity of IgG binding was not affected, but the capacity was reduced.

[3] = biological target: T1, HSA (Homo sapiens, UniProt P02768); assay: HSA binding to heme peptide POROS; conditions: only under very hydrophobic conditions (200 mM sodium sulphate, pH 7 buffer)
T1 construct: purchased Sigma Chemical Co (St. Louis, Mo.)

[4] = test system: IgG; assay: IgG purification from human serum on POROS-immobilized peptide column; format: binding; conditions: immobilized via carboxyl groups of heme and free C-terminal end
[5] = test system: IgG; assay: Solid phase screening of polyclonal antibody digests on immobilized IgG column; format: binding; conditions: tryptic digests of anti-IgG (Fc specific) polyclonal antibodies
Protocol: […] POROS™ EP (epoxy) was suspended in 5 ml 0.1 M phosphate buffer (pH 9) containing 20 mg IgG. After the beads were well suspended, 4 ml 0.1 M phosphate buffer (pH 9) containing 2 M NA2SO4 were added to the mixture and it was shaken overnight at room temperature. The beads were then washed with 10 mM PBS (pH 7.5) and stored in the refrigerator before they were packed into columns.
as §2, with “manually. The fraction was concentrated down to approximately 500 μl and at least 80% of it was injected onto a 4.6 mm D×250 mm L Vydac C18 column at 1 m/min. The RP column was equilibrated with 0.1% TFA/DIW and peptides were eluted with 15 CVs of a 0-40% acetonitrile gradient at flow rate of 1 ml/min.” for “manually.”
Polyclonal antibodies are an interesting and logical source of peptides since they have specific antigen binding sites. […] The amino acid sequence was determined to be […] […]

[6] = test system: IgG; assay: Immunoglobulin class and species selectivity of POROS 19-mer peptide column; format: binding
Protocol: (§3) The 19-mer peptide ([…]) (SEQ ID NO: 7) selected from protein A and G digests was directly synthesized on 20 μm amine-functionalized™ particles by standard FMOC chemistry. About 700 mg of resin was dry packed into a 4.6 mm D×50 mm L PEEK column equipped with 2 μm frits. The packed column was attached with appropriate adapters to a PerSeptive Biosystems 9050 plus continuous flow peptide synthesizer. Upon completion of synthesis, the resin was dried and deprotected using 95% TFA/5% triisopropylsilane for 24 hrs. The final peptide-support conjugate was packed using POROS™ Self Pack® column packing device at flow rate 10 ml/min onto 4.6 mm D×50 mm L column for evaluation as affinity supports.
(§4) The 19-mer peptide column (4.6 mm D×50 mm L) was equilibrated with 20 CVs of equilibration buffer, 20 mM tris (pH 7). About 500 μl of 1 mg/ml of each of the following samples was injected onto the 19-mer peptide column (4.6 mm D×50 mm L): 1) pure IgGs from either human or mouse or chicken, 2) IgA (whole molecule), 3) human serum, 4) fetal bovine serum (1:10 dilution), or 5) 500 μl of 1 mg/ml mouse […]. After injection, the column was washed with 20 CVs of a mixture of 20 mM tris buffer and 0.4 M NaCl (pH 7). The remaining bound proteins were eluted with 20 CVs of 12 mM HCl. […] The bound fractions were collected and analyzed by SDS-Polyacrylamide gel electrophoresis.

[7] = test system: mouse IgG (Fc fragment); assay: Solution phase peptide screening (SEC - reversed phase) of protein A and G digests; format: binding; conditions: native and denatured recombinant protein A and G digests
Protocol: as §1
Fractions corresponding to bound peptide peaks were lyophilized and redissolved in 1001 of 0.1% TFA/DIW for mass spec analysis by MALDI-TOF.

[8] = test system: mouse IgG, Fc fragment; assay: Binding of mouse IgG Fc fragment on POROS 19-mer peptide column; conditions: peptide synthesized directly on POROS NH2 resin via C-terminal end; eluted with acid buffer
Protocol: as §3, §4

| Sequence | selected as binder in library screening [1] | selectivity for IgG from serum versus ion exchange columns ([2]; compared with POROS-CM and POROS HQ, similar conditions) | IgG binding capacity at higher ligand densities ([2]; higher loading density (100 mg/mg)) | IgG binding capacity at lower ligand density ([2]; low loading density (10 mg/g POROS)) | purity of IgG purified from serum ([2]; pH 8, 0-1 M NaCl gradient, versus POROS-Protein A) | IgG binding capacity of POROS-peptide column ([2]; pH 8) | binding to HSA [3] | IgG binding when immobilized via carboxyl groups [4] | specificity of IgG binding from human serum ([2]; pH 8, immobilized on POROS via N-terminal end) | selectivity of peptide isolated from denatured antibody digest [5] | selectivity IgG versus IgA ([6]; POROS 19-mer peptide column) | species selectivity of IgG binding ([6]; human versus rabbit, goat or mouse IgG) | selected as binder in solution phase screening [7] | binding of mouse IgG Fc fragment (capacity and selectivity) [8] |
| --- | --- | --- | --- | --- | --- | --- | --- | --- | --- | --- | --- | --- | --- | --- |
| CAQCHTVEK (cysteine pairing not given here; also: heme group) [tryptic digest peptide of cytochrome c with heme group, immobilized on POROS AL] | yielded one peptide | higher selectivity for IgG from serum than either of the ion exchange columns | 30 mg/ml column volume | 1-2 mg/ml column volume | comparable purity to that of IgG separated on POROS™-Protein A column | 10 mg/ml column volume | bound very weakly | no IgG binding | – | – | – | – | – | – |
| GAQGHTVEK (OTHER INFORMATION: Description of Artificial Sequence: synthetic peptide) [simplified analog of the heme peptide; also isolated from polyclonal antibody digests] | – | – | – | – | – | 5 mg/ml column volume | – | – | bound specifically | selective for IgG | – | – | – | – |
| TVTEKPEVIDASELTPAVT (also: synthesized on POROS) [19-mer peptide selected from protein A and G digests, synthesized on POROS] | – | – | – | – | – | – | – | – | – | – | more selective for IgG than IgA | Human IgG bound more selectively | identified | low capacity but high selectivity |
